We go through 33 compounds from the METLIN SMRT retention time set (Domingo-Almenara et al. 2019).

The nature of the data set: gradient 5% acetonitrile 3 min, to 50% in 2 min, to 85% in 15 min, held 3 min, 100 µL/min. The conditions noted are these: column: Zorbax Extend-C18 2.1 x 50 mm; eluents: water / acetonitrile, 0.1% formic acid. Summed up:
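Each retention time is based on an adduct peak selected computationally and verified by manual inspection. Measurements used HPLC–quadrupole time-of-flight mass spectrometry in positive and negative ionization mode on mixtures of ~100 pure standards. Chromatography ran on a Zorbax Extend-C18 column (2.1 × 50 mm, 1.8 μm) at 100 μL/min with water and acetonitrile, each containing 0.1% formic acid, and dead and dwell volumes of 40 μL and 900 μL.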
`Cc1sc2ccn(C)c(=O)c2c1C(=O)N1CCN(c2ccccc2)CC1` yielded an RP-LC retention time of 728 s.

`Cc1cc(N2CCOCC2)nc(N2CCN(S(=O)(=O)c3cc(C)c(C)cc3C)CC2)n1`: the RP-LC retention time is 733 s.

`O=C(NC1CCCC1)C1CCN(c2ncccc2-c2nc(-c3ccc(Cl)cc3)no2)CC1` showed an RP-LC retention time of 1130 s.

For `COc1cc(C(=O)NCCc2c[nH]c3ccc(C)cc23)cc(OC)c1OC`, the RP-LC retention time is 814 s.

In turn, `CN(C)CC1CCN(C(=O)NC2CCCCC2)CC1` gave an RP-LC retention time of 570 s.

Turning to `CCOc1ccc(-c2ccc(C)c(NC(=O)c3ccc(S(=O)(=O)N(C)C)cc3)c2)nn1`, the RP-LC retention time was 778 s.

In turn, `COc1ccc(-c2cc3nn(CC(=O)NCC4CCCO4)c(=O)n3c(C)n2)cc1` (stereo not drawn) displayed an RP-LC retention time of 728 s.

`O=C(C1CCCC1)N1CCC(c2noc(-c3ccccc3)n2)C1` (stereo not drawn) returned an RP-LC retention time of 924 s.

Compound `CCC(C)(C)NC(=O)C1CCN(S(=O)(=O)c2ccc3c(c2)NC(=O)CO3)CC1` gave an RP-LC retention time of 745 s.

The compound `CCNc1cc(C)nc(N2CCN(C(=O)CC)CC2)n1` displayed an RP-LC retention time of 567 s.

As to `Cc1ccc(CNC(=O)CCc2nc(N3CCCCC3)c3c(-c4ccc(F)cc4)noc3n2)o1`, the RP-LC retention time was found to be 1030 s.

For `CC(C)n1c(C2CCN(C(=O)C3CCCO3)CC2)nn(C)c1=O` (stereo not drawn), the RP-LC retention time is 592 s.

`Cc1ccccc1CNC(=O)C1(C)CCN(S(=O)(=O)c2ccc(Br)cc2)CC1` yielded an RP-LC retention time of 1030 s.

As for `CC1CCN(S(=O)(=O)c2cccc(-c3nnc(-c4ccc(F)cc4)o3)c2)CC1`, the RP-LC retention time is 1150 s.

Consider `Cc1noc2nc(C)n(CC(=O)NCc3ccc(F)cc3)c(=O)c12`, for which the RP-LC retention time is 735 s.

In turn, `Cc1cc(F)ccc1NS(=O)(=O)c1ccc(-c2nnc(C3CCC3)o2)o1` returned an RP-LC retention time of 963 s.

In the case of `COc1cccc(-c2nc(C3CCN(S(=O)(=O)c4ccc5c(c4)CCC5)CC3)no2)c1`, the RP-LC retention time is 1220 s.

`CCCc1ccc(S(=O)(=O)N2CCC(c3noc(-c4cccc(OC)c4)n3)CC2)cc1` yielded an RP-LC retention time of 1280 s.

In the case of `Cc1cccc(C)c1N1CCN(C(=O)c2cccc(F)c2)CC1`, the RP-LC retention time was found to be 1030 s.

With `CN(C)C(=O)c1n[nH]c2c1CN(S(=O)(=O)c1ccccc1)CC2`, the RP-LC retention time was found to be 660 s.

Turning to `Cc1cc(C)c2c(n1)nn1c(N3CCN(c4ccccn4)CC3)cc(C)nc21`, the RP-LC retention time amounted to 561 s.

On to `CCc1noc(NC(C)=O)c1-c1ccc(C)c(S(=O)(=O)Nc2ccc(OC)cc2OC)c1`, for which the RP-LC retention time was found to be 794 s.

Regarding `CSc1cccc(NC(=O)C2CCN(C(=O)C3Sc4ccccc4NC3=O)CC2)c1` (stereo not drawn), the RP-LC retention time was found to be 814 s.

`Cc1cc2c(cc1NC(=O)c1ccco1)n(C)c(=O)n2C` gave an RP-LC retention time of 635 s.

`CCCCN1N=C(C(=O)N2CCCCCC2)S(=O)(=O)c2ccccc21`: the RP-LC retention time worked out at 1030 s.

`CCn1c(CCNC(=O)c2ccc(C)cc2C)nc2cccnc21` returned an RP-LC retention time of 694 s.

For `O=C(CSc1nc2ccccc2c(=O)n1Cc1cccs1)Nc1ncn[nH]1`, the RP-LC retention time stood at 670 s.

On to `Cc1cc(S(=O)(=O)[C@H]2CS(=O)(=O)C[C@@H]2N2CCN(c3ccccc3F)CC2)ccc1F`, for which the RP-LC retention time is 1040 s.

As for `NNC(=O)CNc1cccc(Br)c1`, the RP-LC retention time was determined as 673 s.

The compound `Cc1ccc(C(=O)N2CCCC(COc3ccc(C(=O)NC4CC4)cc3)C2)c(C)c1` (stereo not drawn) registered an RP-LC retention time of 856 s.

On to `Cn1nc(-c2nc(C3CC3)no2)c2c1CCN(S(=O)(=O)c1cccc(F)c1)C2`, for which the RP-LC retention time was 920 s.

In turn, `Cc1c(-c2cccc(NC(=O)c3cc(Br)ccc3Cl)c2)nc2ncccn12` yielded an RP-LC retention time of 716 s.

With `COc1ccccc1-n1ccn2cc(-c3ccc(F)cc3)nc2c1=O`, the RP-LC retention time worked out at 783 s.
